From patent publication EP4740948A1 (Dong Wha Pharm. Co., Ltd., priority 2023, dated 2025)

How the values were obtained:
[1] = target: EZH1 (Homo sapiens, UniProt Q92800); assay: AlphaLISA enzyme activity inhibition, EZH1; format: biochemical; settings: for inhibition at 0.005 µM: 5nM test substance; for inhibition at 0.01 µM: 10nM test substance
Method in brief: (§1)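 EZH1 or EZH2 was mixed with compound at 5 nM or 10 nM final in 20 mM Tris pH 8.0, 0.1% BSA, 0.5 mM DTT, then histone H3 peptide and SAM were added. After 2 h reaction, AlphaLISA acceptor and donor beads detected methylation; inhibition rate was calculated against DMSO control.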

[2] = system: NCI-H1299 cells; assay: Cancer cell proliferation inhibition (Cell Counting Kit-8), lung cancer cell line; format: cell-based; settings: Homo sapiens, NCI-H1299, 264 h, 1000 nM, cultured seven to 11 days; read-out: % inhibition rate NCI-H129 9
Method in brief: (§2)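 One dose only (1000 nM), 7–11 d exposure, 10% FBS in line-appropriate medium; CCK-8 endpoint, inhibition expressed relative to control.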

[3] = system: G401 cells; assay: Cancer cell proliferation inhibition (Cell Counting Kit-8), rhabdoid tumor cell line; format: cell-based; settings: Homo sapiens, G-401, 264 h, 1000 nM, cultured seven to 11 days; read-out: % inhibition rate G401
Method in brief: (§3)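 Cells grown in RPMI1640, McCoy's 5a, L-15 or DMEM with 10% FBS, seeded at 100 to 1,000 cells/well and treated with test substance at 1000 nM for 7 to 11 days. Viability read by CCK-8; % inhibition = {1−(test/control)} × 100.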

[4] = system: Lovo cells; assay: Cancer cell proliferation inhibition (Cell Counting Kit-8), colorectal cancer cell line; format: cell-based; settings: Homo sapiens, LoVo, 264 h, 1000 nM, cultured seven to 11 days; read-out: % inhibition rate LoVo
Method in brief: as §2

[5] = system: SW-13 cells; assay: Cancer cell proliferation inhibition (Cell Counting Kit-8), adrenal cancer cell line; format: cell-based; settings: Homo sapiens, SW13, 264 h, 1000 nM, cultured seven to 11 days; read-out: % inhibition rate SW-13
Method in brief: as §2

[6] = system: MIA-PaCa-2 cells; assay: Cancer cell proliferation inhibition (Cell Counting Kit-8), pancreatic cancer cell line; format: cell-based; settings: Homo sapiens, MIA PaCa-2, 264 h, 1000 nM, cultured seven to 11 days; read-out: % inhibition rate MIA-Paca2
Method in brief: as §2

[7] = system: MKN-45 cells; assay: Cancer cell proliferation inhibition (Cell Counting Kit-8), gastric cancer cell line; format: cell-based; settings: Homo sapiens, MKN-45, 264 h, 1000 nM, cultured seven to 11 days; read-out: % inhibition rate MKN -45
Method in brief: as §3

[8] = target: EZH2 (Homo sapiens, UniProt Q15910); assay: AlphaLISA enzyme activity inhibition, EZH2; format: biochemical; settings: for inhibition at 0.005 µM: 5nM test substance; for inhibition at 0.01 µM: 10nM test substance
Method in brief: as §1

Chain of EZH2 (Q15910 whole entry, species assumed): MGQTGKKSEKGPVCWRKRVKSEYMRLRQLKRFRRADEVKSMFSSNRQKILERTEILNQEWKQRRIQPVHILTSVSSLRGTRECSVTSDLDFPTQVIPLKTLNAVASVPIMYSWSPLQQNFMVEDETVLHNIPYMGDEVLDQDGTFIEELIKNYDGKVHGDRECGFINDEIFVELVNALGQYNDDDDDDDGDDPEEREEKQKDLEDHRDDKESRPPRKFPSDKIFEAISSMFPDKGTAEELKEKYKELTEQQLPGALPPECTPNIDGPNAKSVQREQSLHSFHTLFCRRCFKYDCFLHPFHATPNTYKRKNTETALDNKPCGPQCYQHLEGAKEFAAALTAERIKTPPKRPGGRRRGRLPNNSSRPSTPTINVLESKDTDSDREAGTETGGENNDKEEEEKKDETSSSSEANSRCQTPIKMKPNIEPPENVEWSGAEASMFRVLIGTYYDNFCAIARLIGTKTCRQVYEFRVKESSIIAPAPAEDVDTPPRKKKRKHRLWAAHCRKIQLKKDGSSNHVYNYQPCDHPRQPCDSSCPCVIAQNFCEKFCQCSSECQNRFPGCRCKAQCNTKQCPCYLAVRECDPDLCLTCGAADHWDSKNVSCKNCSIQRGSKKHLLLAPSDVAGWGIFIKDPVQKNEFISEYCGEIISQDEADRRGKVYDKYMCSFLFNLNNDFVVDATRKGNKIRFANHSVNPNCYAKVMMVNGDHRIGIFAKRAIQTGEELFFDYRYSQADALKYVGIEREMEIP
Chain of EZH2 (O75530 whole entry partner, species assumed): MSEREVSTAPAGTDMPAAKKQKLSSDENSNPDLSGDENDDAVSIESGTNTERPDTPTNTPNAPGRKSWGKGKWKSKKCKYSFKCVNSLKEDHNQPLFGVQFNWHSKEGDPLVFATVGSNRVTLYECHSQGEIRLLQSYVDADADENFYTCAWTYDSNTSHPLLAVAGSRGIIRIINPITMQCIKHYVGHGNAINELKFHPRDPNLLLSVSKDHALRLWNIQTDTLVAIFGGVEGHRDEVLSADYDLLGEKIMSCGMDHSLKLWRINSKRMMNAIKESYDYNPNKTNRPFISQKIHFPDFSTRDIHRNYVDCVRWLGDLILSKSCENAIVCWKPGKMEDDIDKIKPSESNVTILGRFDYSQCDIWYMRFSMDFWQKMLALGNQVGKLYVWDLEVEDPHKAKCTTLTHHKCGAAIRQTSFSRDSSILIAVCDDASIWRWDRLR
Chain of EZH2 (Q15022 whole entry partner, species assumed): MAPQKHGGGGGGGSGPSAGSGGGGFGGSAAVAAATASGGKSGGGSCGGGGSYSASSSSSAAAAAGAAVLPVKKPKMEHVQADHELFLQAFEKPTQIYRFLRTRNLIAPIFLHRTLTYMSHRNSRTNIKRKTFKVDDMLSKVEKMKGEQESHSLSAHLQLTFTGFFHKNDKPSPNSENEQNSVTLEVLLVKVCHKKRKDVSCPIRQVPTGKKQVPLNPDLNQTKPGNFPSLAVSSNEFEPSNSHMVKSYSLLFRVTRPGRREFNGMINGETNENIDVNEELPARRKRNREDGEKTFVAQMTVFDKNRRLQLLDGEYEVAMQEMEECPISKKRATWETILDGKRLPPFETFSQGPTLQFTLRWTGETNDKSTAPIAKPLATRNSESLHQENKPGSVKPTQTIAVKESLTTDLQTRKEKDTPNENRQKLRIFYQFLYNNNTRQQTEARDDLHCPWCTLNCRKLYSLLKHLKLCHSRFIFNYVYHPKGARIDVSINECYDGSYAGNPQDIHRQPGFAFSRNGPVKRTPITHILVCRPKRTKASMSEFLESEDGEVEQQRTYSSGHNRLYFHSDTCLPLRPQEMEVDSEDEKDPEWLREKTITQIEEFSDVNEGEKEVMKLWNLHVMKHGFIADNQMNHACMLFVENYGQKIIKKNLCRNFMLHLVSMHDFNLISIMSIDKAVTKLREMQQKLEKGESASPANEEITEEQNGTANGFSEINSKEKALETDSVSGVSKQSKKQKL
Chain of EZH1 (Q92800 whole entry, species assumed): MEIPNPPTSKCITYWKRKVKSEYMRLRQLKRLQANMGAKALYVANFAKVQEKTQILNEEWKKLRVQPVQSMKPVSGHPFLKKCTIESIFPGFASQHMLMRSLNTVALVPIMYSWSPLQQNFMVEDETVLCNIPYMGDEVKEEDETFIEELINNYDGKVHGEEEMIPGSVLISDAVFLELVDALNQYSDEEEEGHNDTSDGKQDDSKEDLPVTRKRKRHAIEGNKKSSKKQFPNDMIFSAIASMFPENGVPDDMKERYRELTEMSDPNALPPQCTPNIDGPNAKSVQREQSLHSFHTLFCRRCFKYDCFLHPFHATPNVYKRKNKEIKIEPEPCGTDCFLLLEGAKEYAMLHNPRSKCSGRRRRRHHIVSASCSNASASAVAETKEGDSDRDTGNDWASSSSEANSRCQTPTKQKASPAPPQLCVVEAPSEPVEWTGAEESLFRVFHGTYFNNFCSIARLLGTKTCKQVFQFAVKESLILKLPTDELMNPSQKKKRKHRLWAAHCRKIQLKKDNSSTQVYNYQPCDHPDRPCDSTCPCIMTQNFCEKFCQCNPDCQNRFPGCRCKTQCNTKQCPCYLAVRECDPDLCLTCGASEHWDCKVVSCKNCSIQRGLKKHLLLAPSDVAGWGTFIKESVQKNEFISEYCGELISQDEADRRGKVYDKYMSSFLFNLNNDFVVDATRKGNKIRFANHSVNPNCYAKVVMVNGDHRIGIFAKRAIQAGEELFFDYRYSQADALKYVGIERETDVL
Chain of EZH1 (O75530 whole entry partner, species assumed): as the sequence (O75530 whole entry partner, species assumed) above
Chain of EZH1 (Q15022 whole entry partner, species assumed): as the sequence (Q15022 whole entry partner, species assumed) above

SMILES | inhibition at 0.005 µM [1] | inhibition at 1 µM [2] | inhibition at 1 µM [3] | inhibition at 1 µM [4] | inhibition at 1 µM [5] | inhibition at 1 µM [6] | inhibition at 1 µM [7] | inhibition at 0.005 µM [8] | inhibition at 0.01 µM [1] | inhibition at 0.01 µM [8]
COc1ccc(F)cc1-c1cc(C(=O)NCc2c(SC)cc(C)[nH]c2=O)c(C)c2c1OC(C)(C1CCC(N(C)C)CC1)O2 (stereo not shown) [Compound 43, 2-(4-(dimethylamino)cyclohexyl)-7-(5-fluoro-2-methoxyphenyl)-2,4-dimethyl-N-((6-methyl-4-(methylthio)-2-oxo-1,2-dihydropyridin-3-yl)methyl)benzo[d][1,3]dioxole-5-carboxamide] | 65.6% | 30 to 70% | ≥ 70% | ≥ 70% | ≤ 30% | ≤ 30% | 30 to 70% | 94.6% |  | 
CSc1cc(C)[nH]c(=O)c1CNC(=O)c1cc(-c2ccc(N3C[C@@H](C)O[C@@H](C)C3)nc2)c2c(c1C)OC(C)(C1CCN(CC(F)F)CC1)O2 (stereo partly drawn) [Compound 46, 2-(1-(2,2-difluoroethyl)piperidin-4-yl)-7-(6-((2S,6R)-2,6-dimethylmorpholino)pyridin-3-yl)-2,4-dimethyl-N-((6-methyl-4-(methylthio)-2-oxo-1,2-dihydropyridin-3-yl)methyl)benzo[d][1,3]dioxole-5-carboxamide] | 44.7% | 30 to 70% | ≥ 70% | ≥ 70% | 30 to 70% | ≤ 30% | 30 to 70% | 59.2% | 63% | 84%
CSc1cc(C)[nH]c(=O)c1CNC(=O)c1cc(-c2ccc(N3CCOCC3)nc2)c2c(c1C)OC(C)(C1CCN(CC(F)(F)F)CC1)O2 (stereo not shown) [Compound 61, 2,4-dimethyl-N-((6-methyl-4-(methylthio)-2-oxo-1,2-dihydropyridin-3-yl)methyl)-7-(6-morpholinopyridin-3-yl)-2-(1-(2,2,2-trifluoro)piperidin-4-yl)benzo[d][1,3]dioxole-5-carboxamide] | 53% | 30 to 70% | ≥ 70% | ≥ 70% | ≤ 30% | ≤ 30% | 30 to 70% | 86.5% | 78.2% | 99.4%
CSc1cc(C)[nH]c(=O)c1CNC(=O)c1cc(-c2cnc(N3CCOCC3)nc2)c2c(c1C)OC(C)(C1CCN(CC(F)(F)F)CC1)O2 (stereo not shown) [Compound 68, 2,4-dimethyl-N-((6-methyl-4-(methylthio)-2-oxo-1,2-dihydropyridin-3-yl)methyl)-7-(2-morpholinopyrimidin-5-yl)-2-(1-(2,2,2-trifluoro)piperidin-4-yl)benzo[d][1,3]dioxole-5-carboxamide] | 56.4% | ≤ 30% | ≥ 70% | ≥ 70% | 30 to 70% | ≤ 30% | 30 to 70% | 87.3% | 78.9% | 99.7%
CCN1CCN(c2ncc(-c3cc(C(=O)NCc4c(SC)cc(C)[nH]c4=O)c(C)c4c3OC(C)(C3CCN(CC(F)(F)F)CC3)O4)cn2)CC1 (stereo not shown) [Compound 75, 7-(2-(4-ethylpiperazin-1-yl)pyrimidin-5-yl)-2,4-dimethyl-N-((6-methyl-4-(methylthio)-2-oxo-1,2-dihydropyridin-3-yl)methyl)-2-(1-(2,2,2-trifluoroethyl)piperidin-4-yl)benzo[d][1,3]dioxole-5-carboxamide] | 61.3% | ≤ 30% | ≥ 70% | ≥ 70% | 30 to 70% | ≤ 30% | 30 to 70% | 79% | 86% | 99.7%
CCN(C)c1ncc(-c2cc(C(=O)NCc3c(SC)cc(C)[nH]c3=O)c(C)c3c2OC(C)(C2CCN(CC(F)(F)F)CC2)O3)cn1 (stereo not shown) [Compound 78] | 53.1% | ≤ 30% | ≥ 70% | ≥ 70% | ≤ 30% | ≤ 30% | 30 to 70% | 86.1% | 79.3% | 98.1%
CSc1cc(C)[nH]c(=O)c1CNC(=O)c1cc(-c2ccc(N3CCCCC3)cc2)c2c(c1C)OC(C)(C1CCN(CC(F)(F)F)CC1)O2 (stereo not shown) [Compound 90, 2,4-dimethyl-N-((6-methyl-4-(methylthio)-2-oxo-1,2-dihydropyridin-3-yl)methyl)-7-(4-(piperidin-1-yl)phenyl)-2-(1-(2,2,2-trifluoroethyl)piperidin-4-yl)benzo[d][1,3]dioxole-5-carboxamide] | 20.2% | ≤ 30% | 30 to 70% | ≥ 70% | ≤ 30% | ≤ 30% | ≤ 30% | 60.1% | 16.2% | 82.3%
CSc1cc(C)[nH]c(=O)c1CNC(=O)c1cc(-c2ccc(N3CCCCC3)nc2)c2c(c1C)OC(C)(C1CCN(CC(F)(F)F)CC1)O2 (stereo not shown) [Compound 91, 2,4-dimethyl-N-((6-methyl-4-(methylthio)-2-oxo-1,2-dihydropyridin-3-yl)methyl)-7-(6-(piperidin-1-yl)pyridin-3-yl)-2-(1-(2,2,2-trifluoroethyl)piperidin-4-yl)benzo[d][1,3]dioxole-5-carboxamide] | 24.5% | ≤ 30% | 30 to 70% | ≥ 70% | ≤ 30% | ≤ 30% | ≤ 30% | 47.4% | 41% | 71.6%
CSc1cc(C)[nH]c(=O)c1CNC(=O)c1cc(-c2cnc(N3CCSCC3)nc2)c2c(c1C)OC(C)(C1CCN(CC(F)(F)F)CC1)O2 (stereo not shown) [Compound 92, 2,4-dimethyl-N-((6-methyl-4-(methylthio)-2-oxo-1,2-dihydropyridin-3-yl)methyl)-7-(2-thiomorpholinopyrimidin-5-yl)-2-(1-(2,2,2-trifluoroethyl)piperidin-4-yl)benzo[d][1,3]dioxole-5-carboxamide] | 27.2% | ≤ 30% | ≥ 70% | ≥ 70% | ≤ 30% | ≤ 30% | 30 to 70% | 80.1% | 43.2% | 91.8%
CSc1cc(C)[nH]c(=O)c1CNC(=O)c1cc(-c2ccc3c(c2)OC(F)(F)O3)c2c(c1C)OC(C)(C1CCN(CC(F)(F)F)CC1)O2 (stereo not shown) [Compound 93, 2',2'-difluoro-2,7-dimethyl-N-((6-methyl-4-(methylthio)-2-oxo-1,2-dihydropyridin-3-yl)methyl)-2-(1-(2,2,2-trifluoroethyl)piperidin-4-yl)-[4,5'-bibenzo[d][1,3]dioxole]-6-carboxamide] | 16.8% | ≤ 30% | ≤ 30% | ≥ 70% | 30 to 70% | ≤ 30% | ≤ 30% | 32.2% | 12.7% | 37.9%
CSc1cc(C)[nH]c(=O)c1CNC(=O)c1cc(-c2ccc3c(c2)OCO3)c2c(c1C)OC(C)(C1CCN(CC(F)(F)F)CC1)O2 (stereo not shown) [Compound 94, 2,7-dimethyl-N-((6-methyl-4-(methylthio)-2-oxo-1,2-dihydropyridin-3-yl)methyl)-2-(1-(2,2,2-trifluoroethyl)piperidin-4-yl)-[4,5'-bibenzo[d][1,3]dioxole]-6-carboxamide] | 25.3% | ≤ 30% | ≤ 30% | ≥ 70% | ≤ 30% | ≤ 30% | ≤ 30% | 65.1% | 28.5% | 82%
CSc1cc(C)[nH]c(=O)c1CNC(=O)c1cc(-c2ccc3c(c2)OCO3)c2c(c1C)OC(C)(C1CCN(CC(F)F)CC1)O2 (stereo not shown) [Compound 95, 2-(1-(2,2-difluoroethyl)piperidin-4-yl)-2,7-dimethyl-N-((6-methyl-4-(methylthio)-2-oxo-1,2-dihydropyridin-3-yl)methyl)-[4,5'-bibenzo[d][1,3]dioxole]-6-carboxamide] | 38.1% | ≤ 30% | ≥ 70% | ≥ 70% | ≤ 30% | ≤ 30% | 30 to 70% | 83.2% | 46% | 91.1%
